Assay results taken from patent publication US7897607B2, “Cyclic compounds” (Takeda Pharmaceutical Company Limited, priority 2005, dated 2011).

Molecular target: T1, human CRF receptor (Homo sapiens, UniProt P34998)
T1 construct: expressed in transfected cells; host or cells: CHO cells (membrane fraction)
T1 sequence (P34998 24-415): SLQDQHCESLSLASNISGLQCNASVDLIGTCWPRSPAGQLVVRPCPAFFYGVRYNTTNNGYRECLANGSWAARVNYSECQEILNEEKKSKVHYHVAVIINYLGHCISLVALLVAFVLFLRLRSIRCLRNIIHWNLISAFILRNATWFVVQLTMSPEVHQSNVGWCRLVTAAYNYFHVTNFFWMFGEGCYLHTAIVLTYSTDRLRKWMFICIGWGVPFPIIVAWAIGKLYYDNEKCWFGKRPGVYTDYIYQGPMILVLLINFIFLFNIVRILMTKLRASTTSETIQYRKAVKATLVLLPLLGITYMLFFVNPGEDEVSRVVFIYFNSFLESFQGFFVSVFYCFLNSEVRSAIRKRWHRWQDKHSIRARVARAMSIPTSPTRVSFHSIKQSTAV
Assay: Measurement of corticotropin-releasing factor (CRF) binding inhibitory rate; receptor binding experiment with 125I-CRF
Details: human CRF receptor expressing CHO cellular membrane fraction, 50 pM 125I-CRF, room temperature 1 hour
Procedure: Measurement of Corticotropin-Releasing Factor (CRF) Binding Inhibitory Rate
A receptor binding experiment was carried out using a human CRF receptor expressing CHO cellular membrane fraction and sheep CRF, [^125I]-tyr^0(^125I-CRF). 100 nM of a test compound was incubated with 1 μg of human CRF receptor expressing CHO cellular membrane fraction and 50 pM of ^125I-CRF in a binding assay buffer (50 mM Tris-HCl, 5 mM EDTA, 10 mM MgCl2, 0.05% CHAPS, 0.1% BSA, 0.5 mM PMSF, […] pepstatin, 20 μg/ml leupeptin, pH 7.5). In addition, for measuring nonspecific binding (NSB), 0.1 μM unlabelled human Urocortin was incubated with 1 μg of human CRF receptor expressing CHO cellular membrane fraction and 50 pM of ^125I-CRF in a binding assay buffer. After a binding reaction was carried out at room temperature for 1 hour, the membrane was entrapped on a glass filter (UniFilter plate GF-C/Perkin Elmer) by suction filtration using a cell harvester (Perkin Elmer), and washed with ice-cooled 50 mM Tris-HCl (pH 7.5). After drying the glass filter, a liquid scintillation cocktail (Microscinti 0, Perkin Elmer) was added, and the radioactivity of ^125I-CRF remaining on a glass filter was measured using Topcount (Perkin Elmer).
(TB-SB)/(TB-NSB)×100 (SB: radioactivity when a compound is added, TB: maximum binding radioactivity, NSB: nonspecific binding radioactivity) was calculated to obtain a binding inhibitory rate under the presence of 1,000 nM or 100 nM of each test substances.

With `CCCN(CCC)c1nc2c(c(-c3ccc(C)cc3C)nn2C)c(=O)n1C` [9 (A), 3-(2,4-Dimethylphenyl)-6-dipropylamino-1,5-dimethyl-1,5-dihydro-4H-pyrazolo[3,4-d]pyrimidin-4-one] the inhibition was > 80%.
`CCCC(CCC)n1cc(C)c(=O)c2c(-c3ccc(C)cc3C)cccc21` [Example 24, 5-(2,4-Dimethylphenyl)-3-methyl-1-(1-propylbutyl)quinolin-4(1H)-one] was tested, and the inhibition was > 80%.
For `CCCN(CCC)c1cc(C)c(=O)n2c(-c3c(C)cc(C)cc3C)cccc12` [Example 28, 1-(Dipropylamino)-6-mesityl-3-methyl-4H-quinolizin-4-one], the inhibition was > 80%.
`CCCN(CCC)c1nc2c(c(-c3c(C)cc(C)cc3C)cn2C)c(=O)n1C` [Example 41, 2-(Dipropylamino)-5-mesityl-3,7-dimethyl-3,7-dihydro-4H-pyrrolo[2,3-d]pyrimidin-4-one] was tested, and the inhibition was > 80%.
With `CCC(CC)Oc1nn(C)c(=O)c2c1ccn2-c1ccc(C)cc1C` [Example 96, 1-(2,4-Dimethylphenyl)-4-(1-ethylpropoxy)-6-methyl-1,6-dihydro-7H-pyrrolo[2,3-d]pyridazin-7-one] the inhibition was > 80%.
In the case of `CCC(CC)n1c2cccc(-c3c(C)cc(C)cc3C)c2c(=O)n1C` [Example 150, 1-(1-ethylpropyl)-4-mesityl-2-methyl-1,2-dihydro-3H-indazol-3-one], the inhibition was > 80%.
